Results from patent US11046697B2, “Compounds and compositions useful for treating disorders related to NTRK” (BLUEPRINT MEDICINES CORPORATION, priority 2015, dated 2021).
Like-named read-outs stand apart in the source and are kept apart here.

Experiments:
[1] = tested on: KM12 Cliff (G595R) cell line; assay: NTRK G595R mutant cellular assay (CellTiter-Glo growth inhibition); assay type: cell-based; details: 72 hr, CellTiter-Glo
Method: (§1) NTRK Wild Type and G595R Mutant Cellular Assays Protocol
(§2) KM12 wild type colon carcinoma cell line harboring the TPM3-NTRK1 fusion protein was obtained from the National Cancer Institute (NCI). This line has been previously shown to be dependent upon the NTRK activity derived from the NTRK fusion protein for growth and survival. […] Cells were first plated in 384-well plates at 1000 cells/well in complete media (10% FBS and 1% pen/strep) and incubated overnight at 37° C. Cells were then dosed with test articles at varying concentrations using the Bravo liquid handling system. […] Each compound was run in duplicate per plate. […] 72 hr after dosing, assay plates were developed using CellTiter-Glo (Promega) and resultant luminescence was read on the Envision plate reader. IC50 determinations were calculated using a 4-parameter curve fitting algorithm

[2] = target: T1, wild type NTRK1 enzyme (Homo sapiens, UniProt P04629); assay: NTRK1 Wild Type Assay at 1 mM ATP; assay type: biochemical; details: 1 mM ATP; read-out: Enz NTRK1 IC50
T1 construct: purchased BPS Bioscience 40280
Method: NTRK1 Wild Type Assay at 1 mM ATP
The reaction was stopped by the addition of 70 μL of Stop buffer (100 mM HEPES pH 7.5, 0.015% Brij 35, 35 mM EDTA and 0.2% of Coating Reagent 3 (Caliper Lifesciences)). The plate was then read on a Caliper EZReader 2 (protocol settings: −1.7 psi, upstream voltage −500, downstream voltage −3000, post sample sip 35s).

[3] = tested on: KM12 wild type colon carcinoma cell line harboring the TPM3-NTRK1 fusion protein; assay: NTRK wild type cellular assay (CellTiter-Glo growth inhibition); assay type: cell-based; details: 72 hr, CellTiter-Glo, read-out: KM12 (WT) IC50
Method: as §1, §2

T1 sequence (P04629 440-796 limits assumed): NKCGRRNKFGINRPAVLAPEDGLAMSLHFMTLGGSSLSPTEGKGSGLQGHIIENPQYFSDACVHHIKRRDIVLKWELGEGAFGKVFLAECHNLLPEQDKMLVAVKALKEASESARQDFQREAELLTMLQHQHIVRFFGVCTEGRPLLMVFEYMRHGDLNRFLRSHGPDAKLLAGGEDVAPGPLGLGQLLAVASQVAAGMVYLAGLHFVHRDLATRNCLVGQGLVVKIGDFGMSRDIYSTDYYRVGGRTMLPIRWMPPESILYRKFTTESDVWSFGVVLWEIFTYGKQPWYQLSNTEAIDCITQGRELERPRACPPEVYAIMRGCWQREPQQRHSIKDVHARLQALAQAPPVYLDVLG

Compound | IC50 [2] [µM] | IC50 [3] [µM] | IC50 ([3]; Homo sapiens, KM12, 72 h) [µM] | IC50 [1] [µM] | IC50 ([1]; Homo sapiens, KM12, 72 h) [µM]
CN(Cc1cc(F)cc(C#N)c1)C(=O)c1n[nH]c2ncnc(NC3CCC(O)C3O)c12 (stereo not drawn) [Compound 44] | 0.01 to 0.1 | 0.01 to 0.1 |  | 0.1 to 1 | 
O=C(NCc1cc(F)ccc1F)c1n[nH]c2ncnc(NC3CC(F)(F)CC3O)c12 (stereo not drawn) [Compound 43] | 0.01 to 0.1 | 0.01 to 0.1 |  | 0.1 to 1 | 
CN(Cc1cc(F)ccc1F)C(=O)c1n[nH]c2ncnc(N[C@@H]3COCC[C@H]3O)c12 [Compound 29] | < 0.01 |  | 0.01 to 0.1 |  | 0.01 to 0.1
O=C(NCc1cc(F)ccc1F)c1n[nH]c2ncnc(N[C@@H]3CCC[C@@H](O)[C@H]3O)c12 [Compound 32] | 0.01 to 0.1 |  | 0.1 to 1 |  | 0.1 to 1
CN(Cc1cc(F)cc(F)c1F)C(=O)c1n[nH]c2ncnc(N[C@@H]3CC[C@@H](O)[C@H]3O)c12 [Compound 63] | < 0.01 |  | 0.01 to 0.1 |  | 0.01 to 0.1
O=C(c1n[nH]c2ncnc(N[C@H]3[C@H](O)[C@H](O)[C@@H]4C[C@@H]43)c12)N1C[C@@H](F)C[C@@H]1c1cccc(F)c1 [Compound 122] | < 0.01 |  | < 0.01 |  | < 0.01
Cc1ccc(F)cc1CN(C)C(=O)c1n[nH]c2ncnc(NC3CCC(O)C3O)c12 (stereo not drawn) [Compound 23] | < 0.01 | 0.01 to 0.1 |  | 0.01 to 0.1 | 
CC(c1cc(F)ccc1F)N(C)C(=O)c1n[nH]c2ncnc(NC3COCC(O)C3O)c12 (stereo not drawn) [Compound 160] | < 0.01 | 0.01 to 0.1 |  | 0.01 to 0.1 | 
O=C(c1n[nH]c2ncnc(N[C@@H]3C[C@@H](C(F)F)[C@@H](O)[C@H]3O)c12)N1C[C@@H](F)C[C@@H]1c1cc(F)ccc1F [Compound 114] | < 0.01 |  | < 0.01 |  | < 0.01
O=C(c1n[nH]c2ncnc(N[C@H]3[C@H](O)[C@H](O)[C@@H]4C[C@@H]43)c12)N1C[C@@H](F)C[C@@H]1c1ccccc1 [Compound 153] | 0.01 to 0.1 | 0.01 to 0.1 |  | 0.01 to 0.1 | 
O=C(c1n[nH]c2ncnc(N[C@@H]3CCC[C@@H](O)[C@H]3O)c12)N1C[C@@H](F)C[C@@H]1c1cc(F)ccc1F [Compound 106] | < 0.01 |  | < 0.01 |  | < 0.01
O=C(NCc1cc(F)ccc1F)c1n[nH]c2ncnc(N[C@@H]3CC[C@@H](F)[C@H]3O)c12 (relative stereo) [Compound 19] | > 1 |  | > 1 |  | > 1
O=C(c1n[nH]c2ncnc(NC3CCCC3O)c12)N1CC(F)CC1c1cncc(F)c1 (stereo not drawn) [Compound 46] | < 0.01 | < 0.01 |  | < 0.01 | 
CN(Cc1cc(F)ccc1F)C(=O)c1n[nH]c2ncnc(N[C@@H]3CCC[C@H]3O)c12 [Compound 6] | < 0.01 |  | 0.01 to 0.1 |  | 0.01 to 0.1
O=C(c1n[nH]c2ncnc(NC3CC(F)CC3O)c12)N1CC(F)CC1c1cc(F)ccc1F (stereo not drawn) [Compound 95] | < 0.01 |  | < 0.01 |  | < 0.01
O=C(NCc1cc(F)cc(F)c1F)c1n[nH]c2ncnc(N[C@@H]3CC[C@@H](O)[C@H]3O)c12 [Compound 41] | 0.01 to 0.1 |  | 0.1 to 1 |  | 0.1 to 1
CN(Cc1cc(F)cnc1Cl)C(=O)c1n[nH]c2ncnc(N[C@@H]3CCC[C@@H](O)[C@H]3O)c12 [Compound 161] | 0.01 to 0.1 | 0.01 to 0.1 |  | 0.01 to 0.1 | 
CN(Cc1cc(F)cnc1Cl)C(=O)c1n[nH]c2ncnc(NC3CC(F)CC3O)c12 (stereo not drawn) [Compound 151] | 0.01 to 0.1 | 0.01 to 0.1 |  | 0.01 to 0.1 | 
O=C(c1n[nH]c2ncnc(N[C@@H]3CCC[C@H]3O)c12)N1CCC[C@@H]1c1cc(F)ccc1F [Compound 45, ((R)-2-(2,5-difluorophenyl)pyrrolidin-1-yl)(4-(((1R,2R)-2-hydroxycyclopentyl)amino)-1H-pyrazolo[3,4-d]pyrimidin-3-yl)methanone] | < 0.01 |  | < 0.01 |  | < 0.01
[2H]C([2H])([2H])N(Cc1cc(F)ccc1F)C(=O)c1n[nH]c2ncnc(N[C@@H]3COCC[C@H]3O)c12 [Compound 39] | < 0.01 |  | 0.01 to 0.1 |  | 0.01 to 0.1
CC(NC(=O)c1n[nH]c2ncnc(NC3CCOCC3O)c12)c1cc(F)ccc1F (stereo not drawn) [Compound 31] | 0.1 to 1 | 0.1 to 1 |  | 0.1 to 1 | 
CN(Cc1cc(F)ccc1C(F)(F)F)C(=O)c1n[nH]c2ncnc(N[C@@H]3CC[C@@H](O)[C@H]3O)c12 [Compound 99] | < 0.01 |  | < 0.01 |  | < 0.01
O=C(NCc1cc(F)ccc1OC(F)(F)F)c1n[nH]c2ncnc(N[C@@H]3CC[C@@H](O)[C@H]3O)c12 [Compound 101] | 0.1 to 1 |  | 0.1 to 1 |  | 0.1 to 1
O=C(NCc1cc(F)ccc1F)c1n[nH]c2ncnc(N[C@@H]3C[C@H]4C[C@H]4[C@H]3O)c12 [Compound 4] | 0.1 to 1 |  | > 1 |  | > 1

Continued, in another order:

IC50 [2] [µM] | IC50 [3] [µM] | IC50 ([3]; Homo sapiens, KM12, 72 h) [µM] | Compound | IC50 [1] [µM] | IC50 ([1]; Homo sapiens, KM12, 72 h) [µM]
< 0.01 | 0.01 to 0.1 |  | O=C(c1n[nH]c2ncnc(NC3COCC(O)C3O)c12)N1CC(F)CC1c1cc(F)cc(Cl)c1 (stereo not drawn) [Compound 223] | 0.01 to 0.1 | 
< 0.01 |  | < 0.01 | O=C(c1n[nH]c2ncnc(N[C@@H]3C[C@@H](C(F)F)C[C@H]3O)c12)N1C[C@@H](F)C[C@@H]1c1cncc(F)c1 [Compound 203] |  | < 0.01
0.01 to 0.1 | 0.01 to 0.1 |  | CN(Cc1cc(F)cc(OC(F)F)c1)C(=O)c1n[nH]c2ncnc(N[C@@H]3CC[C@@H](O)[C@H]3O)c12 [Compound 179] | 0.1 to 1 | 
< 0.01 | < 0.01 |  | O=C(c1n[nH]c2ncnc(NC3CCOCC3O)c12)N1CC(F)CC1c1cc(F)ccc1Br (stereo not drawn) [Compound 183] | < 0.01 | 
< 0.01 | 0.01 to 0.1 |  | O=C(c1n[nH]c2ncnc(NC3CC(F)CC3O)c12)N1CC(F)CC1c1cc(F)cc(F)c1 (stereo not drawn) [Compound 178] | 0.01 to 0.1 | 
0.01 to 0.1 | 0.01 to 0.1 |  | O=C(c1n[nH]c2ncnc(N[C@@H]3C=C[C@@H](O)[C@H]3O)c12)N1C[C@@H](F)C[C@@H]1c1cc(F)cnc1Cl [Compound 194] | 0.01 to 0.1 | 
< 0.01 |  | < 0.01 | O=C(c1n[nH]c2ncnc(N[C@@H]3CC[C@@H](O)[C@H]3O)c12)N1C[C@@H](F)C[C@@H]1c1cc(F)cc(F)c1 [Compound 173] |  | < 0.01
< 0.01 |  | < 0.01 | O=C(c1n[nH]c2ncnc(N[C@@H]3C[C@@H](C(F)F)C[C@H]3O)c12)N1C[C@@H](F)C[C@@H]1c1cc(F)ccc1F [Compound 226, (4-(((1R,2R,4R)-4-(difluoromethyl)-2-hydroxycyclopentyl)amino)-1H-pyrazolo[3,4-d]pyrimidin-3-yl)((2R,4S)-2-(2,5-difluorophenyl)-4-fluoropyrrolidin-1-yl)methanone] |  | < 0.01
0.01 to 0.1 | 0.01 to 0.1 |  | O=C(c1n[nH]c2ncnc(NC3CC(F)CC3O)c12)N1CC(F)CC1c1cc(F)cnc1Cl (stereo not drawn) [Compound 207] | 0.01 to 0.1 | 
< 0.01 |  | < 0.01 | O=C(c1n[nH]c2ncnc(N[C@H]3[C@H](O)[C@H](O)[C@@H]4C[C@@H]43)c12)N1C[C@@H](F)C[C@@H]1c1cc(F)cc(F)c1 [Compound 188] |  | < 0.01
< 0.01 |  | < 0.01 | N#C[C@H]1C[C@@H](O)[C@H](Nc2ncnc3[nH]nc(C(=O)N4C[C@@H](F)C[C@@H]4c4cc(F)cc(Cl)c4)c23)C1 [Compound 211] |  | < 0.01
< 0.01 | < 0.01 |  | N#C[C@H]1C[C@@H](O)[C@H](Nc2ncnc3[nH]nc(C(=O)N4C[C@@H](F)C[C@@H]4c4cc(F)cc(F)c4F)c23)C1 [Compound 212] | < 0.01 | 
< 0.01 | < 0.01 |  | O=C(c1n[nH]c2ncnc(NC3CCOCC3O)c12)N1CC(F)CC1c1cc(F)cc(Cl)c1 (stereo not drawn) [Compound 198] | < 0.01 | 
< 0.01 | < 0.01 |  | O=C(c1n[nH]c2ncnc(N[C@@H]3CC[C@@H](O)[C@H]3O)c12)N1C[C@@H](F)C[C@@H]1c1cc(Cl)ccc1F [Compound 201] | < 0.01 | 
< 0.01 | < 0.01 |  | COc1c(F)cc(F)cc1[C@H]1C[C@H](F)CN1C(=O)c1n[nH]c2ncnc(N[C@@H]3CC[C@@H](O)[C@H]3O)c12 [Compound 219] | < 0.01 | 
< 0.01 |  | < 0.01 | O=C(c1n[nH]c2ncnc(N[C@@H]3CCC[C@H]3O)c12)N1C[C@@H](F)C[C@@H]1c1cc(F)cnc1Cl [Compound 177] |  | < 0.01
< 0.01 | 0.01 to 0.1 |  | O=C(c1n[nH]c2ncnc(N[C@@H]3C=C[C@@H](O)[C@H]3O)c12)N1C[C@@H](F)C[C@@H]1c1cc(F)ccc1OC(F)F [Compound 235] | 0.01 to 0.1 | 
< 0.01 |  | 0.01 to 0.1 | N#Cc1cc(F)cc([C@H]2C[C@H](F)CN2C(=O)c2n[nH]c3ncnc(N[C@@H]4CCCC(F)(F)[C@H]4O)c23)c1 [Compound 230] |  | 0.01 to 0.1
